Square brackets hold non-standard residues; d marks the D form. Peptide text beside a SMILES is read from it.
What was measured:
rats [1] = assay: rat-tail flick method, intracerebroventricular injection; assay type: in vivo; conditions: for Mean % Change ± SEM: change in latency, drug minus baseline; for analgesic effect / pain threshold: injected into the lateral brain ventricle; for analgesic effect / pain threshold / Mean Latency ± SEM, Drug: rat-tail flick; for Mean Latency ± SEM, Drug: after drug
Description: In this test method, which is a standard test for analgesia, a light beam is focused on the tip of the rat's tail, and the pain threshold of the animal is measured by the latency of the rat to remove his tail from the noxious heat source. When tested by the rat-tail flick method by intracerebroventricular injection, according to the procedure of Belluzzi et al., Nature, 260, 625 (1976), the pentapeptide H-Tyr-Gly-Gly-Phe-d-Lys-OH produced the effects set forth in Table I.
*All drugs were dissolved in […]. of Ringer's solution and injected int
the lateral ventricle through permanently-indwelling cannulae.

opiate receptors = assay: displacement of 3H-naloxone from binding sites in rat brain homogenates
mouse vas deferens = conditions: cited from earlier work
guinea pig ileum = conditions: cited from earlier work
opiate receptor = conditions: brain homogenates; cited from earlier work
rats [2] = conditions: injection in the brain ventricle in rats; cited from earlier work
[3] = dose 100 μg into the lateral ventricle
[4] = dose 10 μg into the lateral ventricle

NCCCC[C@@H](NC(=O)[C@H](Cc1ccccc1)NC(=O)CNC(=O)CNC(=O)[C@@H](N)Cc1ccc(O)cc1)C(=O)O [H-Tyr-Gly-Gly-Phe-D-Lys-OH, L-Tyrosyl-Glycyl-Glycyl-L-Phenylalanyl-D-Lysine] (H-YGGF[dK]-OH)
Mean % Change ± SEM (rats [1]; [3]): 78.97 ± 7.85% | analgesic effect / pain threshold (rats [1]): produced an increase in pain threshold | analgesic effect / pain threshold (rats [1]; listed as pentapeptide of Formula I): exerts an analgesic effect | Mean Latency ± SEM, Drug (rats [1]; [3]): 6.16 ± 0.06 | binding to opiate receptors (opiate receptors; in vitro): weak binding | displacement of 3H-naloxone from binding sites (opiate receptors; rat brain homogenates): capable of displacing 3h-naloxone

CSCC[C@H](NC(=O)[C@H](Cc1ccccc1)NC(=O)CNC(=O)CNC(=O)[C@@H](N)Cc1ccc(O)cc1)C(=O)O [Methionine-Enkephalin, H-Tyr-Gly-Gly-Phe-Met-OH]
Mean % Change ± SEM (rats [1]; [3]): 37.2 ± 8.8% | Mean Latency ± SEM, Drug (rats [1]; [3]): 5.19 ± 0.31 | block of electrically evoked contractions (mouse vas deferens): mimic the ability of morphine to block electrically evoked contractions | block of electrically evoked contractions (guinea pig ileum): mimic the ability of morphine to block electrically evoked contractions | inhibition of stereospecific receptor binding of 3H-naloxone (opiate receptor): inhibit the stereospecific receptor binding | analgesia (rats [2]): induce a profound analgesia that is fully reversible by naloxone

CN1CC[C@]23c4c5ccc(O)c4O[C@H]2[C@@H](O)C=C[C@H]3[C@H]1C5.O=S(=O)(O)O [Morphine Sulfate]
Mean % Change ± SEM (rats [1]; [4]): 65.4 ± 9.1% | Mean Latency ± SEM, Drug (rats [1]; [4]): 6.59 ± 0.73

H-Tyr-Gly-Gly-Phe-Leu-OH [leucine-enkephalin]
analgesia (rats [2]): induce a profound analgesia that is fully reversible by naloxone

Source: US4075190A, “Pentapeptide with morphine-like activity” (American Home Products Corporation, priority 1977, dated 1978)
